Data from PubChem BioAssay (NCI).
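These data come from cells grown in 96-well plates and exposed to compound for 48 hours at five concentrations. TGI denotes the concentration required for complete inhibition of growth.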

Assays:
Experiment in all cases: NCI-60 cell line screen, 48 h
[1] = tested on: CCRF-CEM leukemia
[2] = tested on: DU-145 prostate
[3] = tested on: HCC-2998 colon
[4] = tested on: K-562 leukemia
[5] = tested on: M14 melanoma
[6] = tested on: MCF7 breast
[7] = tested on: MDA-MB-231 breast
[8] = tested on: MDA-N
[9] = tested on: NCI/ADR-RES ovarian
[10] = tested on: OVCAR-3 ovarian
[11] = tested on: OVCAR-4 ovarian
[12] = tested on: OVCAR-8 ovarian
[13] = tested on: SK-MEL-2 melanoma
[14] = tested on: SN12C renal
[15] = tested on: SNB-75 CNS
[16] = tested on: SR leukemia
[17] = tested on: A498 renal
[18] = tested on: SK-MEL-5 melanoma
[19] = tested on: T-47D breast

| SMILES | TGI [1] [µM] | TGI [2] [µM] | TGI [3] [µM] | TGI [4] [µM] | TGI [5] [µM] | TGI [6] [µM] | TGI [7] [µM] | TGI [8] [µM] | TGI [9] [µM] | TGI [10] [µM] | TGI [11] [µM] | TGI [12] [µM] | TGI [13] [µM] | TGI [14] [µM] | TGI [15] [µM] | TGI [16] [µM] | TGI [17] [µM] | TGI [18] [µM] | TGI [19] [µM] |
| --- | --- | --- | --- | --- | --- | --- | --- | --- | --- | --- | --- | --- | --- | --- | --- | --- | --- | --- | --- |
| CN(C)CCNC1=CC(=O)c2nc3ccccc3c3ccnc1c23 | 21.3 | 22.4 | 16.8 | 17.7 | 21.6 | 16.3 | 16 | 20.7 | 28.5 | 16.4 | 16.6 | 37.5 | 20.7 | 20.3 | 27.8 | 9.05 |  |  |  |
| CCOC(=O)c1nnsc1NN=C(C)C |  | > 100 | > 100 | > 100 | > 100 |  | > 100 | > 100 | > 100 | > 100 | > 100 | > 100 | > 100 | > 100 | > 100 |  | > 100 | > 100 | > 100 |
| NC(=O)CCC(CCC(N)=O)(CCC(N)=O)[N+](=O)[O-] |  | > 100 |  |  | > 100 | > 100 | > 100 | > 100 | > 100 |  |  | > 100 | > 100 | > 100 | > 100 |  |  | > 100 | > 100 |
| O=P(c1ccccc1)(c1ccccc1)c1ccc2c(c1)OCCOCCOCCOCCO2 | > 100 | > 100 | > 100 | > 100 | > 100 | > 100 | > 100 | > 100 |  |  |  | > 100 |  | > 100 | > 100 | > 100 | > 100 | > 100 | > 100 |
| Cc1cn([C@H]2C[C@@H]3[C@@H](COC(CCl)N3O)O2)c(=O)[nH]c1=O (stereo partly drawn) | > 100 | > 100 |  | > 100 | > 100 | > 100 |  | > 100 | > 100 | > 100 | > 100 | > 100 | > 100 | > 100 | > 100 | > 100 | > 100 | > 100 | > 100 |
| CCC(CCN)(CCN)[N+](=O)[O-] |  | > 100 |  | > 100 | > 100 | > 100 | > 100 | > 100 | > 100 |  |  | > 100 | > 100 | > 100 | > 100 | > 100 |  | > 100 | > 100 |
| NCCCCN(CCCN)Cc1ccc2ccccc2c1 | > 100 | > 100 | 27.3 | > 100 | > 100 | > 100 | > 100 | 51.7 | > 100 |  | > 100 | > 100 |  | 46.3 | 22.8 |  | > 100 | > 100 | > 100 |
| COC(=O)C(Cc1c(C2Nc3ccccc3C2CC(NC(C)=O)C(=O)OC)[nH]c2ccccc12)NC(C)=O (stereo not drawn) | > 100 | > 100 |  | > 100 | > 100 |  | > 100 | > 100 | > 100 | > 100 |  | > 100 | > 100 | > 100 | > 100 |  | > 100 | > 100 | > 100 |
| C/C(=N/c1[nH]c(=O)cc2c1C(=O)CC2)N(C)C | > 200 | > 200 | > 200 | > 200 | > 200 | > 200 | > 200 | > 200 | > 200 | > 200 | > 200 | > 200 | > 200 | > 200 | > 200 |  | > 200 | > 200 | > 200 |
| c1ccc2sc(C3(N4CCC5(CC4)OCCO5)CCCCC3)cc2c1 | > 100 | > 100 | 90.9 | > 100 | > 100 | > 100 |  | > 100 | > 100 | > 100 | > 100 | > 100 |  | > 100 | > 100 | > 100 | > 100 | > 100 | > 100 |
| N#C/C(C(=S)Nc1ccccc1)=C(/N)N1CCCC1 | > 100 | > 100 | > 100 | > 100 | > 100 | > 100 | > 100 | > 100 | > 100 | > 100 | > 100 | > 100 | > 100 | > 100 |  | > 100 | > 100 | > 100 |  |
| COC(=O)c1ccc(COC(=O)N2C=CCC2C(=O)O)cc1 (stereo not drawn) |  | > 100 | > 100 | > 100 | > 100 | > 100 | > 100 | > 100 | > 100 | > 100 |  | > 100 | > 100 | > 100 | > 100 | > 100 |  | > 100 |  |
| CC1C2(C)OC(=N)C(C#N)(C(C)O2)C1(C#N)C#N (stereo not drawn) | 51.3 | 87 | 50.5 | > 100 | 35.8 | 61.9 | 41.6 | 36.1 | > 100 | 51.5 |  | > 100 | 46.6 | 29.8 | > 100 |  | > 100 | 25.8 | > 100 |
| O=Nc1sc(=N\O)/c(=N/O)sc1NO | > 100 | > 100 | > 100 | > 100 | > 100 | > 100 | > 100 | > 100 | > 100 | > 100 | > 100 | > 100 | > 100 | > 100 | > 100 | > 100 | > 100 | > 100 |  |
| CC1(C)CCCCCCC2CC2CCCCCC(C)(C)C1=O (stereo not drawn) | 39.4 | > 100 |  | 98.1 | > 100 |  | > 100 | > 100 | > 100 | > 100 | > 100 | > 100 | > 100 | > 100 | > 100 | 20.7 | > 100 | > 100 | > 100 |
| C=C1CC2CC(=O)C(O)C(C1)C2 (stereo not drawn) | > 100 | > 100 | > 100 | > 100 | > 100 | > 100 |  | > 100 | > 100 | > 100 |  | > 100 |  | > 100 | > 100 | > 100 | > 100 | > 100 | > 100 |
| COc1ccc2nc3cc([N+](=O)[O-])ccc3c(Nc3ccc(S(=O)(=O)N=C(N)N)cc3)c2c1 | 36.5 | > 100 | 39.3 | 63.1 | > 100 | 96.4 | > 100 | > 100 |  | 72.6 | > 100 |  | 44.4 | > 100 |  | 4.68 | > 100 | 36.4 | 88.7 |
| CC(C)n1c(=O)[nH]n(-c2ccccc2)c1=O | > 100 | > 100 |  | > 100 | > 100 | > 100 | > 100 | > 100 | > 100 | > 100 | > 100 | > 100 | > 100 | > 100 | > 100 | > 100 | > 100 | > 100 |  |
| CN(C)C(=S)N/N=C(\C(=N/NC(=S)N(C)C)c1ccccn1)c1ccccn1 |  | 10.8 | 37.5 | > 100 | 42.3 | > 48.7 | 43.1 | > 54 | 62.1 | 14.6 | 26.8 | 77.7 | 36.7 | 20.3 | 27.4 |  | 30.2 | 24.5 | 8.79 |
| COC(=O)CCc1ccc2c(c1)CC1(Cc3ccccc3C1)C2 | > 100 |  | > 100 | > 100 | > 100 | > 100 | > 100 | > 100 | > 100 | > 100 | > 100 | > 100 | > 100 | > 100 | > 100 |  | > 100 | > 100 | > 100 |
| CCC1c2[nH]c3ccccc3c2C[C@H]2C(=O)NC(CCCCNC(=O)OC(C)(C)C)C(=O)N12 (stereo partly drawn) |  | > 100 |  | > 100 | 40.9 | > 100 | 99.4 | 54.9 | 74.6 | 63.4 | > 100 | > 100 | 57.8 | > 100 | 58.2 | 92.8 | > 100 | 38.8 | > 100 |
| O=C1C2=Cc3ccccc3OC2(O)Oc2ccc(O)cc21 (stereo not drawn) | 44.4 | > 100 | > 100 | 74.1 | > 100 | > 100 | > 100 | > 100 | > 100 | > 100 |  | > 100 | > 100 | > 100 | > 100 |  | > 100 | > 100 | > 100 |
| CC[C@@H]1CC[C@@H]2[C@H](CC[C@]3(C)[C@@H](O)CC[C@@H]23)[C@H]1CO | > 100 | > 100 | > 100 | > 100 | > 100 | > 100 | > 100 | > 100 | > 100 | > 100 | > 100 | > 100 | > 100 | > 100 | > 100 |  | > 100 | > 100 | > 100 |
| CSc1nc2c(c(=O)[nH]1)N=C(c1ccc(Cl)cc1)CC(c1ccccc1)N2 (stereo not drawn) | 37.4 | 42.1 | 28.8 | 44.9 | 29.9 | 33.2 | 30.8 | 31.4 | 29.5 | 28.5 | 23.6 | 31.4 | 31.7 | 30 | 24.7 | > 100 | > 100 | 26.1 |  |
| C(=NCCCN1CCN(CCCN=Cc2cccc3ccccc23)CC1)c1cccc2ccccc12 | > 100 |  | > 100 | > 100 | > 100 |  | > 100 | > 100 | > 100 | > 100 | > 100 | > 100 | > 100 | > 100 | > 100 | > 100 |  |  | > 100 |
| COC(=O)c1cnn2c1ccc1ccccc12 | > 100 | > 100 |  | > 100 | > 100 |  | > 100 | > 100 | > 100 | > 100 |  | > 100 | > 100 | > 100 | > 100 |  | > 100 | > 100 | > 100 |
| COC(=O)/C(=N\NC(=S)NN)C(C(=O)OC)C(=O)C(=O)Nc1cccc(C(F)(F)F)c1 (stereo not drawn) | > 100 |  | > 100 |  | > 100 | > 100 | > 100 | > 100 | > 100 | > 100 | > 100 | > 100 | > 100 | > 100 | > 100 |  | > 100 | > 100 | > 100 |
| CCCNC(=O)Cn1c(C)cc2ccccc21 | > 100 | > 100 | > 100 | > 100 | > 100 | > 100 |  | > 100 | > 100 | > 100 | > 100 | > 100 | > 100 | > 100 | > 100 | > 100 |  | > 100 | > 100 |
| CC(C)(C)OC(=O)CC(NC(=O)OC(C)(C)C)C(=O)NC(C(=O)O)C(O)c1ccccc1 (stereo not drawn) | > 100 | > 100 | > 100 | > 100 | > 100 | > 100 | > 100 | > 100 | > 100 | > 100 | > 100 | > 100 | > 100 |  | > 100 |  | > 100 | > 100 | > 100 |
